Reference: patent publication US8916523B2, “VIP fragments and methods of use” (Vectus Biosystems Limited, priority 2005, dated 2014)
Ends that are not written are not given here.

Experiments:
[1] = test system: Spontaneous Hypertensive Rats (SHR); experiment: Effect of VIP fragment treatment on blood pressure (tail cuff plethysmography) in animal model of hypertension; format: in vivo, rat; settings: for reduction in systolic blood pressure (SBP) relative to the control solution: SHR on 2.2% salt diet for 4 weeks, peptide infused at 5 pmol/kg/min for 4 weeks, FIGS. 6-9
Excerpt: To determine whether VIP and fragments were effective in controlling blood pressure, Spontaneous Hypertensive Rats (SHR) were acclimated to blood pressure measurement by tail cuff plethysmography and then they were placed on a 2.2% salt diet for 4 weeks.
The rats were randomized to Control (Hartman's Solution) vehicle infusion, VIP(1-28) ([…] (SEQ ID NO: 1), VIP(4-10) (Ala-Val-Phe-Thr-Asp-Asn-Tyr) (SEQ ID NO: 29), VIP(4-12) (Ala-Val-Phe-Thr-Asp-Asn-Tyr-Thr-Arg) (SEQ ID NO: 31), VIP(4-16) (Ala-Val-Phe-Thr-Asp-Asn-Tyr-Thr-Arg-Leu-Arg-Lys-Gln) (SEQ ID NO: 35), VIP(4-20) (Ala-Val-Phe-Thr-Asp-Asn-Tyr-Thr-Arg-Leu-Arg-Lys-Gln-Met-Ala-Val-Lys) (SEQ ID NO: 39), VIP(4-24) ([…] (SEQ ID NO: 43), VIP(4-28) ([…] (SEQ ID NO: 90), VIP(6-10) (Phe-Thr-Asp-Asn-Tyr) (SEQ ID NO: 66), VIP(6-12) (Phe-Thr-Asp-Asn-Tyr-Thr-Arg) (SEQ ID NO: 68), VIP(6-16) (Phe-Thr-Asp-Asn-Tyr-Thr-Arg-Leu-Arg-Lys-Gln) (SEQ ID NO: 72), VIP(6-20) (Phe-Thr-Asp-Asn-Tyr-Thr-Arg-Leu-Arg-Lys-Gln-Met-Ala-Val-Lys) (SEQ ID NO: 76), VIP(6-24) (Phe-Thr-Asp-Asn-Tyr-Thr-Arg-Leu-Arg-Lys-Gln-Met-Ala-Val-Lys-Lys-Tyr-Leu-Asn) (SEQ ID NO: 80), VIP(6-28) ([…] (SEQ ID NO: 84), VIP(16-20) (Gln-Met-Ala-Val-Lys) (SEQ ID NO: 20), VIP(16-24) (Gln-Met-Ala-Val-Lys-Lys-Tyr-Leu-Asn) (SEQ ID NO: 93), VIP(16-28) (Gln-Met-Ala-Val-Lys-Lys-Tyr-Leu-Asn-Ser-Ile-Leu-Asn) (SEQ ID NO: 88), VIP(1-12) (His-Ser-Asp-Ala-Val-Phe-Thr-Asp-Asn-Tyr-Thr-Arg) (SEQ ID NO: 91) and VIP(10-28) (Tyr-Thr-Arg-Leu-Arg-Lys-Gln-Met-Ala-Val-Lys-Lys-Tyr-Leu-Asn-Ser-Ile-Leu-Asn) (SEQ ID NO: 92), VIP(4-10) (Ala-Val-Phe-Thr-Asp-Asn-Tyr) (SEQ ID NO: 29).
Each peptide was infused at 5 pmol/kg/min
Blood pressure was measured by tail cuff plethysmography twice weekly for 4 weeks.

[2] = test system: WKY rats on a high salt diet; experiment: Effect of VIP fragment treatment on regression of existing myocardial fibrosis; format: in vivo, rat; settings: 18 week old WKY rats after 4 weeks high salt diet and infusion 5 pmol/kg/min vs untreated 14 week old rats (zero time), preliminary results, FIG. 2
Experimental: To determine whether VIP (6-16) (SEQ ID NO: 72), VIP(6-20) (SEQ ID NO: 76) and VIP(6-24) (SEQ ID NO: 80) infusion caused regression of existing fibrosis as well as prevented progression of fibrosis two groups of studies were performed. The degree of myocardial fibrosis in untreated 14 week old WKY rats was compared with the degree of fibrosis in 18 week old WKY rats after 4 weeks treatment with a high salt diet or a high salt diet plus L-NAME (10 mg/kg/day) and either VIP (6-16) (SEQ ID NO: 72), VIP(6-20) (SEQ ID NO: 76) and VIP(6-24) (SEQ ID NO: 80) (5 pmol/kg/min) or vehicle control infusion (see FIG. 2)
The regression of fibrosis may be due to either reduction in collagen formation or enhancement of its degradation.

myocardial fibrosis = settings: disclosed in PCT/AU2005/000835; cited from earlier work

Substance: AVFTDNYTR [VIP(4-12)]
- reduction in systolic blood pressure (SBP) relative to the control solution [1]: significant reductions in SBP

Substance: AVFTDNYTRLRKQ [VIP(4-16)]
- reduction in systolic blood pressure (SBP) relative to the control solution [1]: significant reductions in SBP
- relative efficacy in reducing SBP compared with VIP(4-12) and VIP(4-20) ([1]; SHR on high salt diet, 5 pmol/kg/min for 4 weeks, FIG. 6): less efficacious

Substance: AVFTDNYTRLRKQMAVK [VIP(4-20)]
- reduction in systolic blood pressure (SBP) relative to the control solution [1]: significant reductions in SBP

Substance: AVFTDNYTRLRKQMAVKKYLN [VIP(4-24)]
- reduction in systolic blood pressure (SBP) relative to the control solution [1]: significant reductions in SBP

Substance: AVFTDNYTRLRKQMAVKKYLNSILN [VIP(4-28)]
- reduction in systolic blood pressure (SBP) relative to the control solution [1]: significant reductions in SBP

Substance: FTDNYTRLRKQ [VIP(6-16)]
- regression of myocardial fibrosis [2]: regression of myocardial fibrosis

Substance: FTDNYTRLRKQMAVK [VIP(6-20)]
- reduction in systolic blood pressure (SBP) relative to the control solution [1]: significant reductions in SBP

Substance: FTDNYTRLRKQMAVKKYLN [VIP(6-24)]
- reduction in systolic blood pressure (SBP) relative to the control solution [1]: significant reductions in SBP

Substance: His-Ser-Asp-Ala-Val-Phe-Thr-Asp-Asn-Tyr-Thr-Arg-Leu-Arg-Lys-Gln-Met-Ala-Val-Lys-Lys-Tyr-Leu-Asn-Ser-Ile-Leu-Asn (HSDAVFTDNYTRLRKQMAVKKYLNSILN; listed as Homo sapiens) [VIP, reference compound]
- reduction in systolic blood pressure (SBP) relative to the control solution [1]: not seen to have any significant effect in reducing SBP

Substance: Phe-Thr-Asp-Asn-Tyr-Thr-Arg-Leu-Arg-Lys-Gln-Met-Ala-Val-Lys-Lys-Tyr-Leu-Asn-Ser-Ile-Leu-Asn (FTDNYTRLRKQMAVKKYLNSILN; listed as Homo sapiens) [VIP(6-28), VIP fragment described earlier in PCT/AU2005/000835, not included in the present invention, reference compound]
- reduction in systolic blood pressure (SBP) relative to the control solution [1]: significant reductions in SBP
- effectiveness for preventing myocardial fibrosis (myocardial fibrosis): effective for preventing myocardial fibrosis
